# How the values were obtained:
# GST tagged PIP4KtypeIIB = target: T1, GST tagged PIP4KtypeIIB (Homo sapiens, UniProt P78356); assay: Trans-FI P kinase assay PIP4K2B (PIP4KtypeIIB inhibition assay); format: biochemical; conditions: Table 4; compounds listed under IC50 range headings; 100 uM GTP, 5 nM PIP4KIIB; read-out: Trans-FI P kinase assays: PIP4K2B IC50
# T1 construct: made in house; host or cells: E. coli
# T1 sequence (P78356 1-416): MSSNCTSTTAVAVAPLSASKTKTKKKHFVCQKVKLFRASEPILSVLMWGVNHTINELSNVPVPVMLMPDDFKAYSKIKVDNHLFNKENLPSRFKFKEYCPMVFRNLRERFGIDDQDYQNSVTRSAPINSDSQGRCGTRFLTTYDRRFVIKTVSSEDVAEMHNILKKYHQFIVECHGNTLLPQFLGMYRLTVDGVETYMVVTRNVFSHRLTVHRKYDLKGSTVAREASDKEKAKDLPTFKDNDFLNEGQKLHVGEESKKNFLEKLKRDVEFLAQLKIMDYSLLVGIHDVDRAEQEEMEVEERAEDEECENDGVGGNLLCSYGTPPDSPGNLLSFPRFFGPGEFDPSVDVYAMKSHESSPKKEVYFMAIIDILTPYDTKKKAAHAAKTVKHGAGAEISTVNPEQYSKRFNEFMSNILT
# Outline: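 Transcreener FI fluorescence, converted to GDP by calibration, tracked product from 5 nM E. coli-expressed GST-PIP4KIIB acting on 80 uM PI5P (DOPE carrier) with 100 uM GTP. Compound (top 4.8 uM final, 5% DMSO) was preincubated 1 h at 27 C before the 2 h reaction; IC50 fitted from residual activity.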
# GST tagged PIP4KtypeIIA = target: T2, GST tagged PIP4KtypeIIA (Homo sapiens, UniProt P48426); assay: ADP-glo kinase assay PIP4K 2A (PIP4KtypeIIA inhibition assay); format: biochemical; conditions: Table 3; compounds listed under IC50 range headings; 10 uM ATP, 0.5 nM PIP4KIIA
# T2 construct: made in house; host or cells: E. coli
# T2 sequence (P48426 1-406): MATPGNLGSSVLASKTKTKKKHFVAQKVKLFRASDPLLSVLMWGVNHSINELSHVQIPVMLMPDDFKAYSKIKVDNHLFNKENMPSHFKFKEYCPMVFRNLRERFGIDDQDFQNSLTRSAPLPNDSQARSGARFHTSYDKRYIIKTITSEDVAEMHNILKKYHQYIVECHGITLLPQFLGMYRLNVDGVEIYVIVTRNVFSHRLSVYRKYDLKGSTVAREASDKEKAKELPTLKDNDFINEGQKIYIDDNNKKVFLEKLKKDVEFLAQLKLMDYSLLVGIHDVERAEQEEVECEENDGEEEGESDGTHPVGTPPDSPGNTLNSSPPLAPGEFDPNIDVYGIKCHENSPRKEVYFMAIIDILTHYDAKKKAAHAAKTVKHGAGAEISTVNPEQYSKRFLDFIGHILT
# Outline: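 Read-out was ADP-Glo luminescence converted to μM ADP, with IC50 plotted as % of no-inhibitor activity against log concentration. Reactions contained 10 μM ATP, 80 μM PI5P with DOPE carrier, and 0.5 nM GST-tagged PIP4KIIA (E. coli-expressed) in pH 7.3 HEPES/MgCl2 buffer with 5% DMSO. Enzyme and compound (≤4.8 μM) were preincubated 1 h at 27 °C before the 1 h reaction.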
# [1] = target: T3, PIP4K2A (full length protein, SignalChem) (Homo sapiens, UniProt P48426); assay: Kinase Assay PIP4K2 A (Sprint); ADP-Glo biochemical assay; conditions: Table 2; compounds listed under IC50 range headings
# T3 construct: 4 nM PIP4K2A (full length protein, SignalChem); purchased SignalChem
# T3 sequence (P48426 1-406): T2 sequence (P48426 1-406)
# Outline: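 ADP-Glo luminescence detected ADP after a 1 h RT reaction started with 60 μM ATP solution. Before that, full-length PIP4K2A (4 nM in mix) with 100 μM PI(5)P diC8 was pre-incubated 15 min with compounds in MOPS buffer pH 7.2, 25 mM MgCl2, 0.005% Tween 20. IC50 derived from % inhibition relative to DMSO over 10 three-fold concentrations.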
SMILES,IC50 (GST tagged PIP4KtypeIIB) [nM],IC50 (GST tagged PIP4KtypeIIA) [nM],IC50 [1] [nM]
"Cn1ccc2c(-c3cncc(-c4ccc(N5CCCC5=O)cc4)c3)cn(C)c2c1=O [Example 243, 1,6-dimethyl-3-(5-(4-(2-oxopyrrolidin-1-yl)phenyl)pyridin-3-yl)-1,6-dihydro-7H-pyrrolo[2,3-c]pyridin-7-one]",100 to 1000,100 to 1000,100 to 1000
"Cc1c(-c2cncc(-c3ccc(N4CCCC4=O)cc3)c2)c2cc(C(=O)N(C)C)cnc2n1C [Example 249, N,N,1,2-tetramethyl-3-(5-(4-(2-oxopyrrolidin-1-yl)phenyl)pyridin-3-yl)-1H-pyrrolo[2,3-b]pyridine-5-carboxamide]",100 to 1000,100 to 1000,5 to 100
"Cc1[nH]c2ncc(C(=O)N(C)C)cc2c1-c1cncc(-c2ccc(N3CCCC3=O)cc2)c1 [Example 250, N,N,2-trimethyl-3-(5-(4-(2-oxopyrrolidin-1-yl)phenyl)pyridin-3-yl)-1H-pyrrolo[2,3-b]pyridine-5-carboxamide]",100 to 1000,100 to 1000,5 to 100
"COc1ncc(-c2cnc(N)c(-c3ccc(N4CCCC4=O)cc3)c2)c2cn[nH]c12 [Example 258, 1-(4-(2-amino-5-(7-methoxy-2H-pyrazolo[3,4-c]pyridin-4-yl)pyridin-3-yl)phenyl)pyrrolidin-2-one]",100 to 1000,100 to 1000,5 to 100
"O=C1CCCN1c1ccc(-c2cncc(-c3cc(C4CC4)nc4n[nH]cc34)c2)cc1 [Example 267, 1-(4-(5-(6-cyclopropyl-2H-pyrazolo[3,4-b]pyridin-4-yl)pyridin-3-yl)phenyl)pyrrolidin-2-one]",100 to 1000,100 to 1000,5 to 100
"O=C1CCCN1c1ccc(-c2cncc(-c3c(OC4CCOCC4)cnc4[nH]ccc34)c2)cc1 [Example 268, 1-(4-(5-(5-((tetrahydro-2H-pyran-4-yl)oxy)-1H-pyrrolo[2,3-b]pyridin-4-yl)pyridin-3-yl)phenyl)pyrrolidin-2-one]",1000 to 2500,> 5000,1000 to 2500
"O=C1CCCN1c1ccc(-c2cncc(-c3cnc4nccn4c3)c2)cc1 [Example 275, 1-(4-(5-(imidazo[1,2-a]pyrimidin-6-yl)pyridin-3-yl)phenyl)pyrrolidin-2-one]",2500 to 5000,100 to 1000,100 to 1000
"CN1CCn2c(cc3c(-c4cncc(-c5ccc(N6CCCCCC6=O)cc5)c4)ccnc32)C1=O [Example 345, 7-methyl-4-(5-(4-(2-oxoazepan-1-yl)phenyl)pyridin-3-yl)-8,9-dihydropyrido[3′,2′:4,5]pyrrolo[1,2-a]pyrazin-6(7H)-one]",10 to 100,100 to 1000,100 to 1000
"CN1CCn2c(cc3c(-c4cncc(-c5ccc(C(=O)N6CCCCC6)cc5)c4)ccnc32)C1=O [Example 354, 7-methyl-4-(5-(4-(piperidine-1-carbonyl)phenyl)pyridin-3-yl)-8,9-dihydropyrido[3′,2′:4,5]pyrrolo[1,2-a]pyrazin-6(7H)-one]",10 to 100,100 to 1000,100 to 1000
"Cn1cc(-c2cnc(N)nc2)c2cc(-c3cncc(-c4ccc(N5CCCC5=O)cc4)c3)cnc21 [Example 355, 1-(4-(5-(3-(2-aminopyrimidin-5-yl)-1-methyl-1H-pyrrolo[2,3-b]pyridin-5-yl)pyridin-3-yl)phenyl)pyrrolidin-2-one]",100 to 1000,10 to 100,5 to 100
"CC(C)n1cnnc1-c1ccc(-c2cncc(-c3ccnc4c3cc3n4CCN(C)C3=O)c2)cc1 [Example 384, 4-(5-(4-(4-isopropyl-4H-1,2,4-triazol-3-yl)phenyl)pyridin-3-yl)-7-methyl-8,9-dihydropyrido[3′,2′:4,5]pyrrolo[1,2-a]pyrazin-6(7H)-one]",10 to 100,100 to 1000,100 to 1000

# Now from value to compound:
IC50 (GST tagged PIP4KtypeIIB) [nM],IC50 (GST tagged PIP4KtypeIIA) [nM],IC50 [1] [nM],SMILES
10 to 100,10 to 100,5 to 100,"CN(C)C(=O)c1cc2c(-c3cncc(-c4ccc(N5CCCC5=O)cc4)c3)ccnc2[nH]1 [Example 241, N,N-dimethyl-4-(5-(4-(2-oxopyrrolidin-1-yl)phenyl)pyridin-3-yl)-1H-pyrrolo[2,3-b]pyridine-2-carboxamide]"
100 to 1000,100 to 1000,100 to 1000,"COc1cc(-c2cncc(-c3ccc(N4CCCC4=O)cc3)c2)c2c[nH]nc2n1 [Example 257, 1-(4-(5-(6-methoxy-2H-pyrazolo[3,4-b]pyridin-4-yl)pyridin-3-yl)phenyl)pyrrolidin-2-one]"
100 to 1000,100 to 1000,5 to 100,"COc1ncc(-c2cncc(-c3ccc(N4CCCC4=O)cc3)c2)c2c[nH]nc12 [Example 270, 1-(4-(5-(7-methoxy-2H-pyrazolo[3,4-c]pyridin-4-yl)pyridin-3-yl)phenyl)pyrrolidin-2-one]"
10 to 100,100 to 1000,5 to 100,"O=C(NCc1ccc2c(c1)COB2O)c1cc2c(-c3cncc(-c4ccc(N5CCCC5=O)cc4)c3)ccnc2[nH]1 [Example 276, N-((1-hydroxy-1,3-dihydrobenzo[c][1,2]oxaborol-5-yl)methyl)-4-(5-(4-(2-oxopyrrolidin-1-yl)phenyl)pyridin-3-yl)-1H-pyrrolo[2,3-b]pyridine-2-carboxamide]"
10 to 100,10 to 100,5 to 100,"COC(=O)c1cc2c(-c3cncc(-c4ccc(N5CCCC5=O)cc4)c3)ccnc2[nH]1 [Example 302, methyl 4-(5-(4-(2-oxopyrrolidin-1-yl)phenyl)pyridin-3-yl)-1H-pyrrolo[2,3-b]pyridine-2-carboxylate]"
100 to 1000,100 to 1000,100 to 1000,"CN1CCn2c(cc3c(-c4cncc(-c5ccc(N6CCCCC6=O)cc5)c4)ccnc32)C1=O [Example 346, 7-methyl-4-(5-(4-(2-oxopiperidin-1-yl)phenyl)pyridin-3-yl)-8,9-dihydropyrido[3′,2′:4,5]pyrrolo[1,2-a]pyrazin-6(7H)-one]"
